Positions of bridges follow the written chain, without caps; N, C: chain ends. Non-standard residues stand in square brackets, D forms with d. No end group written: not given here. NMeY = CN[C@@H](Cc1ccc(O)cc1)C(=O)O; hCys = N[C@@H](CCS)C(=O)O
System: MC1/MC4
Details: ratio MC1/MC4
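Note: ratio of EC50 values obtained at MC1 versus MC4 receptors, with MC1 potency measured by luciferase reporter activity in stably transfected cells expressing human MC1.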

Substance | MC1/MC4 selectivity
N-hexanoyl-cyclo[hCys-His-D-Phe-Arg-Trp-penicillamine]-NH2 [Compound 170] | 9.00
N-phenylsulfonyl-cyclo[hCys-His-D-Phe-Arg-Trp-Cys]-NH2 [Compound 150] | 12.88
N-propionyl-cyclo[Cys-Glu-His-D-Phe-Arg-Trp-Cys]-NH2 [Compound 37] | 36.99
N-succinyl-Tyr-Arg-cyclo[Cys-Glu-His-D-Phe-Arg-Trp-Cys]-NH2 [Compound 74] | 12.00
N-succinyl-Tyr-Arg-cyclo[Cys-Glu-His-D-Phe-Arg-Trp-Cys]-OH [Compound 131] | 7.00
N-valeryl-cyclo[Cys-Glu-His-D-Phe-Arg-Trp-Cys]-NH2 [Compound 39] | 19.67
RCH[dF]RW[hCys]-NH2 (disulfide 2-7) [Compound 186] | 11.44
R[hCys]H[dF]RWC-NH2 (disulfide 2-7) [Compound 153] | 41.81
R[hCys]H[dF]RWC-OH (disulfide 2-7) [Compound 155] | 55.84
Tyr-Arg-cyclo[Cys-Glu-His-D-Phe-Arg-Trp-Cys]-NH2 [Compound 68] | 14.08
Tyr-Arg-cyclo[Cys-Glu-His-D-Phe-Arg-Trp-Cys]-NH—(CH2)6—NH2 [Compound 70] | 2.00
Tyr-Arg-cyclo[Cys-Glu-His-D-Phe-Arg-Trp-Cys]-OH [Compound 69] | 18.38
YRCEH[dF]RWCE-NH2 (disulfide 3-9) [Compound 71] | 5.13
YRCGH[dF]RWC-NH2 (disulfide 3-9) [Compound 11] | 11.00
YR[hCys]H[dF]RWC-NH2 (disulfide 3-8) [Compound 162] | 30.07
YR[hCys]H[dF]RWC-OH (disulfide 3-8) [Compound 163] | 19.46
[NMeY]RCMH[dF]RWC-NH2 (disulfide 3-9) [Compound 17] | 10.42
[dR][hCys]H[dF]RWC-NH2 (disulfide 2-7) [Compound 154] | 36.00
cyclo[3-thiopropionyl-His-D-Phe-Arg-Trp-hCys]-NH2 [Compound 179] | 5.35
cyclo[Cys-Glu-His-D-Phe-Arg-Trp-Cys]-NH2 [Compound 29] | 15.00
cyclo[Cys-His-(4-Cl-D-Phe)-Arg-Trp-hCys]-NH2 [Compound 182] | 185.74
cyclo[Cys-His-(4-F-D-Phe)-Arg-Trp-hCys]-NH2 [Compound 181] | 45.25
cyclo[Cys-His-D-Phe-Arg-Trp-hCys]-NH2 [Compound 180] | 30.38
cyclo[hCys-His-(4-Cl-D-Phe)-Arg-Trp-Cys]-NH2 [Compound 135] | 120.27
cyclo[hCys-His-(4-F-D-Phe)-Arg-Trp-Cys]-NH2 [Compound 134] | 68.42
cyclo[hCys-His-D-Phe-Arg-Trp-Cys]-NH2 [Compound 132] | 77.32
cyclo[hCys-His-D-Phe-Arg-Trp-Cys]-OH [Compound 133] | 31.29
phenylsulfonyl-Gly-cyclo[hCys-His-D-Phe-Arg-Trp-Cys]-NH2 [Compound 161] | 2.18
